Reference: patent US11453633B2, “Production method for crystal of reduced coenzyme Q10 having excellent stability” (KANEKA CORPORATION, priority 2018, dated 2022)

Key:
[1] = compared with the conventional reduced coenzyme Q10 Form I crystal; cited from earlier work
[2] = Reduced coenzyme Q10 concentration dissolved in the liquid phase of the crystallization mixture, by HPLC (Example 11); assay type: physicochemical; details: 99.5% ethanol
Description: The inside of a 500 mL separable flask (made of borosilicate glass) was replaced with nitrogen, and 40.0 g of reduced coenzyme Q10 and 360 g of 99.5% ethanol were then added thereto (reduced coenzyme Q10 concentration: 10 wt. %). Thereafter, the obtained raw material mixture was warmed to 42° C. while stirring with a stirring blade (power required for stirring: 0.1 kw/m^3) to obtain a homogeneous solution. This solution was cooled to 35° C., and thereafter, 0.4 g (1 wt. %) of reduced coenzyme Q10 crystals comprising reduced coenzyme Q10 Form II crystals were added as seed crystals to the solution.
The mixture obtained after the addition of the seed crystals was kept at 35° C. for 15 hours to precipitate crystals. Thereafter, the mixture was cooled to 25° C. at a constant cooling rate of −2° C./hour over 5 hours, and was then cooled to 10° C. at a constant cooling rate of −10° C./hour over 1.5 hours, to further precipitate crystals. After the temperature had reached 10° C., the mixture was filtered for solid-liquid separation. The obtained crystal was dried under reduced pressure at 35° C. for 10 hours to obtain a reduced coenzyme Q10 Form II crystal (Form II rate: 100%; recovery rate: 97%).
In the present experiment, the liquid phase of the mixture was sampled immediately before addition of the seed crystals (at 0 hour), and then at 3 hours, 6 hours, 9 hours, 12 hours, 15 hours (so far, at 35° C.), 17.5 hours (30° C.), 20 hours (25° C.), 20.5 hours (20° C.), and 21.5 hours (10° C.) after the addition of the seed crystals. The concentration (wt. %) of reduced coenzyme Q10 dissolved in the liquid phase sample was measured according to high performance liquid chromatography.
Conditions for the high performance liquid chromatography, by which the reduced coenzyme Q10 concentration was measured, are shown below.
Column: SYMMETRY C18 (manufactured by Waters); 250 mm (length), 4.6 mm (inner diameter)
Mobile phase: C2H5OH:CH3OH=4:3 (v:v)
Detection wavelength: 210 nm
Retention time of reduced coenzyme Q10: 9.1 min.

[3] = compared with oxidized coenzyme Q10; cited from earlier work

Row | SMILES | stability of the crystal form [1] | Reduced coenzyme Q10 concentration ([2]; crystallization time 0 h (immediately before addition of the seed crystals), 35° C.) [wt %] | Reduced coenzyme Q10 concentration ([2]; crystallization time 3 h, 35° C.) [wt %] | Reduced coenzyme Q10 concentration ([2]; crystallization time 6 h, 35° C.) [wt %] | Reduced coenzyme Q10 concentration ([2]; crystallization time 9 h, 35° C.) [wt %] | Reduced coenzyme Q10 concentration ([2]; crystallization time 12 h, 35° C.) [wt %] | Reduced coenzyme Q10 concentration ([2]; crystallization time 15 h, 35° C.) [wt %] | Reduced coenzyme Q10 concentration ([2]; crystallization time 17.5 h, 30° C.) [wt %] | Reduced coenzyme Q10 concentration ([2]; crystallization time 20 h, 25° C.) [wt %] | Reduced coenzyme Q10 concentration ([2]; crystallization time 20.5 h, 20° C.) [wt %] | Reduced coenzyme Q10 concentration ([2]; crystallization time 21.5 h, 10° C.) [wt %] | oral absorbability [3]
1 | COc1c(O)c(C)c(C/C=C(\C)CC/C=C(\C)CC/C=C(\C)CC/C=C(\C)CC/C=C(\C)CC/C=C(\C)CC/C=C(\C)CC/C=C(\C)CC/C=C(\C)CCC=C(C)C)c(O)c1OC [reduced coenzyme Q10 Form II crystal, reduced coenzyme Q10] | much more stable |  |  |  |  |  |  |  |  |  |  | 
2 | COc1c(O)c(C)c(C/C=C(\C)CC/C=C(\C)CC/C=C(\C)CC/C=C(\C)CC/C=C(\C)CC/C=C(\C)CC/C=C(\C)CC/C=C(\C)CC/C=C(\C)CCC=C(C)C)c(O)c1OC [reduced coenzyme Q10] |  | 10.0 | 9.9 | 9.6 | 9.2 | 8.5 | 7.2 | 3.1 | 1.5 | 0.8 | 0.3 | higher oral absorbability than that of oxidized coenzyme Q10
